Source: paper PMC6530635, “A Novel Single-Site Mutation in the Catalytic Domain of Protoporphyrinogen Oxidase IX (PPO) Confers Resistance to PPO-Inhibiting Herbicides” (Frontiers in Plant Science, 2019)

Legend:
Assay type in all cases: biochemical
[1] = test system: recombinant Amaranthus tuberculatus PPO2 G399A
[2] = test system: recombinant Amaranthus tuberculatus PPO2 ΔG210
[3] = test system: recombinant Amaranthus tuberculatus PPO2 R128L

SMILES	Resistance factor G399A (IC50 mutant / IC50 sensitive PPO2) [1]	Resistance factor ΔG210 (IC50 mutant / IC50 sensitive PPO2) [2]	Resistance factor R128L (IC50 mutant / IC50 sensitive PPO2) [3]
O=C(O)c1cc(Oc2ccc(C(F)(F)F)cc2Cl)ccc1[N+](=O)[O-] [Acifluorfen]	>541	>541	>541
C=CCOC(=O)C(C)(C)OC(=O)c1cc(-n2c(=O)cc(C(F)(F)F)n(C)c2=O)ccc1Cl [Butafenacil]	741	17578	23
C#CCN(C)c1c(C#N)cnn1-c1nn2c(c1Cl)CCCC2 [Pyraclonil]	799	782	0
CCOC(=O)C(C)OC(=O)c1cc(Oc2ccc(C(F)(F)F)cc2Cl)ccc1[N+](=O)[O-] (stereo not shown) [Lactofen]	28167	18271	2812
C#CCN1C(=O)COc2cc(F)c(N3C(=O)C4=C(CCCC4)C3=O)cc21 [Flumioxazin]	868	3157	2631
CC(C)Oc1cc(-n2nc(C(C)(C)C)oc2=O)c(Cl)cc1Cl [Oxadiazon]	285	151	1
Cc1nn(-c2cc(CC(Cl)C(=O)O)c(Cl)cc2F)c(=O)n1C(F)F (stereo not shown) [Carfentrazone]	116	3957	3
COC(=O)CSc1cc(/N=c2\sc(=O)n3n2CCCC3)c(F)cc1Cl [Fluthiacet-methyl]	3567	94	4
CCOc1cc(Oc2ccc(C(F)(F)F)cc2Cl)ccc1[N+](=O)[O-] [Oxyfluorfen]	18548	982	74
Cc1nn(-c2cc(NS(C)(=O)=O)c(Cl)cc2Cl)c(=O)n1C(F)F [Sulfentrazone]	282		
CCOC(=O)COc1cc(-c2nn(C)c(OC(F)F)c2Cl)c(F)cc1Cl [Pyraflufen-ethyl]	11816	1083	1
